Measured values reported in ChEMBL document CHEMBL4316622, “Discovery of novel pyrazole derivatives as potential anticancer agents in MCL” (Bioorg Med Chem Lett, 2019).

How the values were obtained:
Z-138 = assay: Antiproliferative activity against human Z138 cells assessed as inhibition of cell proliferation incubated for 72 hrs by Cell-titer-Glo luminescent cell viability assay; format: functional, cell-based; settings: Z-138, 72 h
JeKo-1 = assay: Antiproliferative activity against human JeKo1 cells assessed as inhibition of cell proliferation incubated for 72 hrs by Cell-titer-Glo luminescent cell viability assay; format: functional, cell-based; settings: JeKo-1, 72 h
[1] = Antiproliferative activity against human Mino cells assessed as inhibition of cell proliferation incubated for 72 hrs by Cell-titer-Glo luminescent cell viability assay; format: functional, cell-based
Maver1 = assay: Antiproliferative activity against human Maver1 cells assessed as inhibition of cell proliferation incubated for 72 hrs by Cell-titer-Glo luminescent cell viability assay; format: functional, cell-based; settings: Maver1, 72 h
Rec1 = assay: Antiproliferative activity against human Rec1 cells assessed as inhibition of cell proliferation incubated for 72 hrs by Cell-titer-Glo luminescent cell viability assay; format: functional, cell-based; settings: Rec1, 72 h
[2] = Stability in human liver microsomes assessed as compound remaining incubated of 60 mins in presence of NADPH regenerating system by LC/MS analysis
in vitro [3] = settings: human
Description: Hepatic clearance in human liver microsomes further incubated of 5 to 60 mins in presence of NADPH regenerating system by LC/MS analysis

[4] = Half life in human liver microsomes further incubated of 5 to 60 mins in presence of NADPH regenerating system by LC/MS analysis
in vitro [5] = settings: human; remark: listed apart in the source
Description: Intrinsic clearance in human liver microsomes further incubated of 5 to 60 mins in presence of NADPH regenerating system by LC/MS analysis

SMILES | IC50 (Z-138) [µM] | IC50 (JeKo-1) [µM] | IC50 [1] [µM] | IC50 (Maver1) [µM] | IC50 (Rec1) [µM] | remaining at 1 h ([2]; microsomes) [%] | CLint scaled (in vitro [3]; liver microsomes) [mL/min/kg] | half-life ([4]; liver microsomes) [min] | microsomal CLint (in vitro [5]; liver microsomes) [µL/min/mg] | remaining at 1 h ([2]; liver microsomes) [%] | CLint scaled (in vitro [3]; microsomes) [mL/min/kg] | half-life ([4]; microsomes) [min] | microsomal CLint (in vitro [5]; microsomes) [µL/min/mg]
C=CC(=O)Nc1ccc(Cn2nc(-c3ccc(Oc4ccccc4)cc3)cc2CO)cc1 | 6.8 | 8 | 5.2 | 7 | 3.5 | – | – | – | – | – | – | – | –
C=CC(=O)Nc1cccc(Cn2nc(-c3ccc(Oc4ccccc4)cc3)cc2C(=O)O)c1 | 28.5 | > 60 | 24.3 | 37.4 | 33.1 | – | – | – | – | – | – | – | –
C=CC(=O)Nc1cccc(Cn2nc(-c3ccc(Oc4ccccc4)cc3)cc2CO)c1 | 6 | 5.2 | 3.3 | 6.7 | 1.3 | – | – | – | – | – | – | – | –
C/C=C/C(=O)Nc1cccc(Cn2nc(-c3ccc(Oc4ccccc4)cc3)cc2CO)c1 | 5.7 | 22.6 | 4.9 | 8.1 | 3.4 | – | – | – | – | – | – | – | –
O=C(CCl)Nc1ccc(Cn2nc(-c3ccc(Oc4ccccc4)cc3)cc2CO)cc1 | 0.4 | 0.4 | 0.4 | 0.4 | 0.4 | – | – | – | – | – | – | – | –
C/C=C/C(=O)N1CCCC(n2nc(-c3ccc(Oc4ccccc4)cc3)cc2C(=O)O)C1 (racemic) | > 60 | > 60 | > 60 | > 60 | 31 | – | – | – | – | – | – | – | –
C[C@]12CC[C@H]3[C@@H](CCC4=CC(=O)CC[C@@]43C)[C@@H]1CC[C@@H]2O [TESTOSTERONE] | – | – | – | – | – | 4.2 | – | – | – | – | – | – | –
CCOC(=O)c1cc(-c2ccc(Oc3ccccc3)cc2)nn1Cc1ccc(NC(=O)CCl)cc1 | 0.4 | 0.4 | 0.6 | 0.4 | 0.4 | – | – | – | – | – | – | – | –
C/C=C/C(=O)Nc1cccc(Cn2nc(-c3ccc(Oc4ccccc4)cc3)cc2C(=O)O)c1 | 24.1 | > 60 | 23.3 | 31.6 | 26 | – | – | – | – | – | – | – | –
C/C=C/C(=O)N1CCCC(n2nc(-c3ccc(Oc4ccccc4)cc3)cc2CO)C1 (racemic) | 51.1 | > 60 | 45 | > 60 | 27.2 | – | – | – | – | – | – | – | –
O=C(CCl)N1CCCC(n2nc(-c3ccc(Oc4ccccc4)cc3)cc2CO)C1 (racemic) | 0.4 | 7.8 | 6 | 1.1 | 0.4 | – | – | – | – | – | – | – | –
CCOC(=O)c1cc(-c2ccc(Oc3ccccc3)cc2)nn1Cc1cccc(NC(=O)CCl)c1 | 0.4 | 0.4 | 1 | 0.5 | 0.4 | – | – | – | – | – | – | – | –
CCOC(=O)c1cc(-c2ccc(Oc3ccccc3)cc2)nn1C1CCCN(C(=O)CCl)C1 (racemic) | 1.3 | 0.8 | 1.2 | 1.2 | 0.4 | – | – | – | – | – | – | – | –
C/C=C/C(=O)Nc1ccc(Cn2nc(-c3ccc(Oc4ccccc4)cc3)cc2CO)cc1 | 54.5 | > 60 | 40.2 | 48.4 | 12.2 | – | – | – | – | – | – | – | –
C/C=C/C(=O)Nc1cccc(Cn2nc(-c3ccc(Oc4ccccc4)cc3)cc2C(=O)OCC)c1 | 8.9 | 16.7 | 16.5 | 14.2 | 7.8 | – | – | – | – | – | – | – | –
O=C(CCl)Nc1cccc(Cn2nc(-c3ccc(Oc4ccccc4)cc3)cc2CO)c1 | 0.4 | 0.4 | 0.4 | 0.4 | 0.4 | – | 118 | 10.6 | 131 | 1.5 | – | – | –
O=C(CCl)Nc1cccc(Cn2nc(-c3ccc(Oc4ccccc4)cc3)cc2C(=O)O)c1 | 9.1 | 6.3 | 11.7 | 4.7 | 7.1 | – | – | – | – | – | – | – | –
C/C=C/C(=O)Nc1ccc(Cn2nc(-c3ccc(Oc4ccccc4)cc3)cc2C(=O)OCC)cc1 | > 60 | 52.5 | 33.2 | > 60 | 13.1 | – | – | – | – | – | – | – | –
C=CC(=O)N1CCCC(n2nc(-c3ccc(Oc4ccccc4)cc3)cc2C(=O)O)C1 (racemic) | > 60 | > 60 | > 60 | > 60 | 50 | – | – | – | – | – | – | – | –
O=C(O)Cc1ccccc1Nc1c(Cl)cccc1Cl [DICLOFENAC] | – | – | – | – | – | – | – | – | – | – | 109 | 11.5 | 121
C=CC(=O)Nc1cccc(Cn2nc(-c3ccc(Oc4ccccc4)cc3)cc2C(=O)OCC)c1 | 7.8 | 7.6 | 5.7 | 8.6 | 3.3 | – | – | – | – | – | – | – | –
C=CC(=O)N1CCCC(n2nc(-c3ccc(Oc4ccccc4)cc3)cc2CO)C1 (racemic) | 14.6 | 11.9 | 15.4 | 30.5 | 5.4 | – | – | – | – | – | – | – | –
C=CC(=O)Nc1ccc(Cn2nc(-c3ccc(Oc4ccccc4)cc3)cc2C(=O)OCC)cc1 | 12.5 | 10.9 | 5.4 | 13.3 | 2.8 | – | – | – | – | – | – | – | –
C=CC(=O)Nc1ccc(Cn2nc(-c3ccc(Oc4ccccc4)cc3)cc2C(=O)O)cc1 | > 60 | > 60 | > 60 | > 60 | > 60 | – | – | – | – | – | – | – | –
C/C=C/C(=O)Nc1ccc(Cn2nc(-c3ccc(Oc4ccccc4)cc3)cc2C(=O)O)cc1 | > 60 | > 60 | 23.1 | > 60 | 23.6 | – | – | – | – | – | – | – | –
O=C(CCl)Nc1ccc(Cn2nc(-c3ccc(Oc4ccccc4)cc3)cc2C(=O)O)cc1 | 1.5 | 2.5 | 4.5 | 1.2 | 4 | – | – | – | – | – | – | – | –
C=CC(=O)N1CCC[C@@H](n2nc(-c3ccc(Oc4ccccc4)cc3)c3c(N)ncnc32)C1 [IBRUTINIB] | 11.3 | 1.5 | 10.1 | 10.4 | 1.1 | – | – | – | – | – | – | – | –
C/C=C/C(=O)N1CCCC(n2nc(-c3ccc(Oc4ccccc4)cc3)cc2C(=O)OCC)C1 (racemic) | 19.1 | 26.5 | 11.7 | 19.6 | 5.1 | – | – | – | – | – | – | – | –
O=C(O)c1cc(-c2ccc(Oc3ccccc3)cc2)nn1C1CCCN(C(=O)CCl)C1 (racemic) | 2.8 | 3.6 | 2.5 | 0.4 | 2.2 | – | – | – | – | – | – | – | –
C=CC(=O)N1CCCC(n2nc(-c3ccc(Oc4ccccc4)cc3)cc2C(=O)OCC)C1 (racemic) | 44 | 21.2 | 42.3 | > 60 | 13.8 | – | – | – | – | – | – | – | –
